Results on four molecules are retold here after ChEMBL document CHEMBL1150173, “Antiviral saponins from Tieghemella heckelii” (J Nat Prod, 2002).

Activity calls are given as the source filed them. The rule behind the calls is not given here.

One data set concerns HeLa. Nature of the data set: Cytotoxicity against human HeLa cells expressing CD4+ construct at 20 uM after 3 days by MTT assay. The class given is cell-based. The following applies: 72 h.
For data set [1], the system named is Human immunodeficiency virus 1. Nature of the data set: Inhibition of HIV1 in wild type CHO cells mediated human HeLa-CD4+ cell fusion assessed as inhibition of syncytium formation at 20 uM by cell-cell fusion assay. The class given is functional.

For `C[C@@H]1O[C@@H](O[C@@H]2[C@@H](O)[C@H](O[C@@H]3[C@@H](O)[C@@H](O)[C@H](O[C@H]4[C@H](OC(=O)[C@]56CCC(C)(C)C[C@H]5C5=CC[C@@H]7[C@@]8(C)C[C@H](O)[C@H](O[C@@H]9O[C@H](CO)[C@@H](O)[C@H](O)[C@H]9O)[C@@](C)(CO)[C@@H]8[C@H](O)C[C@@]7(C)[C@]5(C)C[C@H]6O)OC[C@H](O)[C@@H]4O)O[C@H]3C)OC[C@H]2O)[C@H](O)[C@H](O)[C@H]1O` [ARGANINE C], in the data set with HeLa, the Activity entry is on record as “Non-toxic”. Also, the inhibition at 20 µM in data set [1] (Human immunodeficiency virus 1, CHO) is 100%.
Take `CC1(C)CC[C@]2(C(=O)O)[C@H](O)C[C@]3(C)C(=CC[C@@H]4[C@@]5(C)C[C@H](O)[C@H](O[C@@H]6O[C@H](CO)[C@@H](O)[C@H](O)[C@H]6O)[C@@](C)(CO)[C@@H]5[C@H](O)C[C@]43C)[C@@H]2C1`: the outcome in data set [1] was inactive.
Still for that read-out and setting: the same measure for `CC1(C)CC[C@]2(C(=O)O)[C@H](O)C[C@]3(C)C(=CC[C@@H]4[C@@]5(C)C[C@H](O)[C@H](O[C@@H]6O[C@H](C(=O)O)[C@@H](O)[C@H](O)[C@H]6O)[C@@](C)(CO)[C@@H]5[C@H](O)C[C@]43C)[C@@H]2C1`: “inactive”.
In the case of `C[C@@H]1O[C@@H](O[C@@H]2[C@@H](O)[C@H](O[C@@H]3[C@@H](O)[C@@H](O)[C@H](O[C@H]4[C@H](OC(=O)[C@]56CCC(C)(C)C[C@H]5C5=CC[C@@H]7[C@@]8(C)C[C@H](O)[C@H](O[C@@H]9O[C@H](C(=O)O)[C@@H](O)[C@H](O)[C@H]9O)[C@@](C)(CO)[C@@H]8[C@H](O)C[C@@]7(C)[C@]5(C)C[C@H]6O)OC[C@H](O)[C@@H]4O)O[C@H]3C)OC[C@H]2O)[C@H](O)[C@H](O)[C@H]1O` [TIEGHEMELIN], the Activity result in the data set with HeLa was “Non-toxic”.
